Test results as given in patent US9809623B2, “α4β7 peptide monomer and dimer antagonists” (Protagonist Therapeutics, Inc., priority 2014, dated 2017).
Numbered stars: 1 amine (or outer) side, 2 acyl side, 3 side chain; on linkers, the order of the positions; unused ones are H or OH. Bridge positions count the residues as written; N and C are the ends. Square brackets hold non-standard residues; d marks the D form. Peptide text beside a SMILES is read from it. I, II: the chains in the order shown. * marks the point of attachment. Phe(4-tBu) = CC(C)(C)c1ccc(C[C@H](N)C(=O)O)cc1; Phe(4-CN) = N#Cc1ccc(C[C@H](N)C(=O)O)cc1; 1Nal = N[C@@H](Cc1cccc2ccccc12)C(=O)O; 2Nal = N[C@@H](Cc1ccc2ccccc2c1)C(=O)O; Diglycolyl = O=C(COCC(=O)[*:2])[*:1]; Oleoyl = CCCCCCCC/C=C\CCCCCCCC(=O)*; NMeR = CN[C@@H](CCCNC(=N)N)C(=O)O; Myristoyl = CCCCCCCCCCCCCC(=O)*; β3hE = N[C@@H](CCC(=O)O)CC(=O)O; Cha = N[C@@H](CC1CCCCC1)C(=O)O; Pen = CC(C)(S)[C@H](N)C(=O)O; Lauroyl = CCCCCCCCCCCC(=O)*

The molecules below were run against α4β7 (Homo sapiens, UniProt P13612+P26010) (assay: α4β7-MAdCAM Cell Adhesion Assay (RPMI 8866 human cells)). Conditions: Table 3-B, Potency (α4β7); range classes; read-out: α4β7 cell (Hu) IC50.
α4β7, sequence (P13612 34-1032): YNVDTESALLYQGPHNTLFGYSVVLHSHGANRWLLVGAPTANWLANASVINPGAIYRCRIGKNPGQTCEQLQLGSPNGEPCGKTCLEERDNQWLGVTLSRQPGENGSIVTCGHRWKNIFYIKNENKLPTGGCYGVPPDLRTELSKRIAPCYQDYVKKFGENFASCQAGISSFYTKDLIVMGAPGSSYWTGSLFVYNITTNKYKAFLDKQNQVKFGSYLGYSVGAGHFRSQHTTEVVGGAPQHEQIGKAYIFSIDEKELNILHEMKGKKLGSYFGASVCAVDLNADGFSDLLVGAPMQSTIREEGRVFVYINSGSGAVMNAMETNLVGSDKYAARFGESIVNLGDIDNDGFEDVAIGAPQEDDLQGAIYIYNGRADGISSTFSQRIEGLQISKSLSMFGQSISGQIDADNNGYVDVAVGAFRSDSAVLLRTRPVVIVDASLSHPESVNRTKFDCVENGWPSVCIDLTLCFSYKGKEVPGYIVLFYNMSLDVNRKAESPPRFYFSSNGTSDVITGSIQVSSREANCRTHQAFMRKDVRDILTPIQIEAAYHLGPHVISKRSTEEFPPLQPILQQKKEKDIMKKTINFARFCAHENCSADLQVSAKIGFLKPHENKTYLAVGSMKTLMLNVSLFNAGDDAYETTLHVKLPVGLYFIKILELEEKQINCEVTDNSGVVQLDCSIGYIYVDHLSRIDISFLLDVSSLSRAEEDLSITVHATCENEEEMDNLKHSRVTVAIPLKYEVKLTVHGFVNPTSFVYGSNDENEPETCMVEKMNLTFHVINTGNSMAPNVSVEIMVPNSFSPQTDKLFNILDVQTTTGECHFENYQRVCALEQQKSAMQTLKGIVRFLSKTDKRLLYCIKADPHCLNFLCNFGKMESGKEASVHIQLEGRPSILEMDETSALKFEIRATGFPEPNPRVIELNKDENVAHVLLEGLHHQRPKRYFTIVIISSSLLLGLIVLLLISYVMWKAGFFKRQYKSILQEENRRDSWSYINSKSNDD
α4β7, sequence (P26010 20-798): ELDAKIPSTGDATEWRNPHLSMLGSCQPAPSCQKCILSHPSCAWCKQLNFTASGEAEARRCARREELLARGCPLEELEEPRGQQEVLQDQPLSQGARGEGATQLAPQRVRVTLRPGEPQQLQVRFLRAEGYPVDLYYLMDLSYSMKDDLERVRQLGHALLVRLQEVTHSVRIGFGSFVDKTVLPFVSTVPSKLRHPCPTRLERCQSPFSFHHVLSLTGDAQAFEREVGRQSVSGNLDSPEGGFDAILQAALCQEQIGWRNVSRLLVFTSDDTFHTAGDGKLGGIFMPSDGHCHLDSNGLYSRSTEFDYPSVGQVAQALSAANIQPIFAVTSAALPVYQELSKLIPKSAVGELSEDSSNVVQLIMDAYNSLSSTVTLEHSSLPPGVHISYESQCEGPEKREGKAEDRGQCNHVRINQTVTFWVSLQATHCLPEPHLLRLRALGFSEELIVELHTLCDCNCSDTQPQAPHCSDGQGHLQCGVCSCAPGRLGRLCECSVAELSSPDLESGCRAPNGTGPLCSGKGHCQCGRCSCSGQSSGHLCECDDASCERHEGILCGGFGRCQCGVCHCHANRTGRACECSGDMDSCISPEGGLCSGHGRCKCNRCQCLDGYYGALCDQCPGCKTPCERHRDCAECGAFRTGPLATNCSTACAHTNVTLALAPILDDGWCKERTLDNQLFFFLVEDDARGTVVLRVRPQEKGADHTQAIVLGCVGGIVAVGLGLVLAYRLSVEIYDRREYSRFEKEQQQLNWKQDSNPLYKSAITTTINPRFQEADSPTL
Format: cell-based
Parameters: host or cells: RPMI 8866 human B lymphoblastoid cells
Method: RPMI 8866 human cells (Sigma #95041316) were cultured in RPMI 1640 HEPES medium (Invitrogen #22400-089) supplemented with 10% serum (Fetal Bovine Serum, Invitrogen #16140-071), 1 mM sodium pyruvate (Invitrogen #11360-070), 2 mM L-glutamine (Invitrogen #25030-081) and Penicillin-Streptomycin (Invitrogen #15140-122) at 100 units of penicillin and 100 μg of streptomycin per ml. The cells were washed two times in DMEM medium (ATCC #30-2002) supplemented with 0.1% BSA, 10 mM HEPES pH 7 and 1 mM MnCl2. The cells were re-suspended in supplemented DMEM medium at a density of 4×10^6 cells/ml.
A Nunc MaxiSorp plate was coated with rh MAdCAM-1/Fc Chimera (R&D #6065-MC) at 200 ng per well in 50 ul per well in 1×PBS and incubated at 4° C. overnight. The solution was then removed by shaking, blocked with 250 ul per well PBS containing 1% BSA, and incubated at 37° C. for 1 hr. The solution was removed by shaking. Peptides were diluted by serial dilution in a final volume of 50 ul per well (2× concentration). To each well, 50 ul of cells (200,000 cells) were added and the plate was incubated at 37° C., 5% CO2 for 30-45 min to allow cell adhesion. The wells were washed manually three times (100 ul per wash) with supplemented DMEM. After the final wash, 100 ul/well of supplemented DMEM and 10 ul/well of MTT reagent (ATTC cat#30-1010K) were added. The plate was incubated at 37° C., 5% CO2 for 2-3 hrs until a purple precipitate was visible. 100 ul of Detergent Reagent (ATTC cat#30-1010K) was added to each well. The plate was covered from the light, wrapped in Parafilm to prevent evaporation, and left overnight at room temperature in the dark. The plate was shaken for 5 min and the absorbance at 570 nm was measured. To calculate the dose response, the absorbance value of control wells not containing cells was subtracted from each test well.
Work on CC(=O)N[C@@H]1C(=O)N(C)[C@@H](CCCNC(=N)N)C(=O)N[C@@H](CO)C(=O)N[C@@H](CC(=O)O)C(=O)N[C@@H]([C@@H](C)O)C(=O)N[C@@H](CC(C)C)C(=O)N[C@H](C(=O)N[C@@H](Cc2ccc(C#N)cc2)C(=O)N[C@@H](CCC(=O)O)CC(=O)N[C@H](CCCCNC(=O)COCC(=O)NCCCC[C@@H](NC(=O)C[C@H](CCC(=O)O)NC(=O)[C@H](Cc2ccc(C#N)cc2)NC(=O)[C@H]2NC(=O)[C@H](CC(C)C)NC(=O)[C@H]([C@@H](C)O)NC(=O)[C@H](CC(=O)O)NC(=O)[C@H](CO)NC(=O)[C@H](CCCNC(=N)N)N(C)C(=O)[C@@H](NC(C)=O)C(C)(C)SSC2(C)C)C(N)=O)C(N)=O)C(C)(C)SSC1(C)C [compound 139] (I: Ac-[Pen][NMeR]SDTL[Pen][Phe(4-CN)][β3hE][dK]-NH2 / II: Ac-[Pen][NMeR]SDTL[Pen][Phe(4-CN)][β3hE][dK]-NH2; disulfide I:1-I:7, II:1-II:7; linker I:10-II:10 via Diglycolyl) yielded an IC50 of under 0.01 µM.
Molecule CC(=O)N[C@@H]1C(=O)N(C)[C@@H](CCCNC(=N)N)C(=O)N[C@@H](CO)C(=O)N[C@@H](CC(=O)O)C(=O)N[C@@H]([C@@H](C)O)C(=O)N[C@@H](CC(C)C)C(=O)N[C@H](C(=O)N[C@@H](Cc2c[nH]c3ccccc23)C(=O)N2CCC[C@H]2C(=O)N[C@@H](CCCCNC(=O)COCC(=O)NCCCC[C@H](NC(=O)[C@@H]2CCCN2C(=O)[C@H](Cc2c[nH]c3ccccc23)NC(=O)[C@H]2NC(=O)[C@H](CC(C)C)NC(=O)[C@H]([C@@H](C)O)NC(=O)[C@H](CC(=O)O)NC(=O)[C@H](CO)NC(=O)[C@H](CCCNC(=N)N)N(C)C(=O)[C@@H](NC(C)=O)C(C)(C)SSC2(C)C)C(N)=O)C(N)=O)C(C)(C)SSC1(C)C [compound 95] (I: Ac-[Pen][NMeR]SDTL[Pen]WPK-NH2 / II: Ac-[Pen][NMeR]SDTL[Pen]WPK-NH2; disulfide I:1-I:7, II:1-II:7; linker I:10-II:10 via Diglycolyl) has an IC50 of 0.1 to 0.5 µM.
Molecule CCCCCCCCCCCC(=O)N[C@@H]1C(=O)N(C)[C@@H](CCCNC(=N)N)C(=O)N[C@@H](CO)C(=O)N[C@@H](CC(=O)O)C(=O)N[C@@H]([C@@H](C)O)C(=O)N[C@@H](CC(C)C)C(=O)N[C@H](C(=O)N[C@@H](Cc2ccc(C(C)(C)C)cc2)C(=O)N[C@@H](CCC(=O)O)CC(=O)N[C@H](CCCCN)C(N)=O)C(C)(C)SSC1(C)C [compound 179] (Lauroyl-[Pen][NMeR]SDTL[Pen][Phe(4-tBu)][β3hE][dK]-NH2; disulfide 1-7) has an IC50 of 0.1 to 0.5 µM.
In the case of CC(=O)N[C@@H]1C(=O)N(C)[C@@H](CCCNC(=N)N)C(=O)N[C@@H](CO)C(=O)N[C@@H](CC(=O)O)C(=O)N[C@@H](CC2CCCCC2)C(=O)N[C@@H](CC(C)C)C(=O)N[C@H](C(=O)N[C@@H](Cc2ccc3ccccc3c2)C(=O)N[C@H](CCC(=O)O)C(N)=O)C(C)(C)SSC1(C)C [compound 158] (Ac-[Pen][NMeR]SD[Cha]L[Pen][2Nal][dE]-NH2; disulfide 1-7), the IC50 is reported as 1 to 10 µM.
In the case of CC(=O)N[C@@H]1C(=O)N(C)[C@@H](CCCNC(=N)N)C(=O)N[C@@H](CO)C(=O)N[C@@H](CC(=O)O)C(=O)N[C@@H]([C@@H](C)O)C(=O)N[C@@H](CC(C)C)C(=O)N[C@H](C(=O)N[C@@H](Cc2c[nH]c3ccccc23)C(=O)N[C@H](CCC(=O)O)C(=O)N[C@H](CCCCNC(=O)CN(CC(=O)NCCCC[C@@H](NC(=O)[C@@H](CCC(=O)O)NC(=O)[C@H](Cc2c[nH]c3ccccc23)NC(=O)[C@H]2NC(=O)[C@H](CC(C)C)NC(=O)[C@H]([C@@H](C)O)NC(=O)[C@H](CC(=O)O)NC(=O)[C@H](CO)NC(=O)[C@H](CCCNC(=N)N)N(C)C(=O)[C@@H](NC(C)=O)C(C)(C)SSC2(C)C)C(N)=O)C(=O)CCN)C(N)=O)C(C)(C)SSC1(C)C [compound 70], the IC50 is reported as 0.025 to 0.05 µM.
CCCCCCCC/C=C\CCCCCCCC(=O)N[C@@H]1C(=O)N(C)[C@@H](CCCNC(=N)N)C(=O)N[C@@H](CO)C(=O)N[C@@H](CC(=O)O)C(=O)N[C@@H]([C@@H](C)O)C(=O)N[C@@H](CC(C)C)C(=O)N[C@H](C(=O)N[C@@H](Cc2ccc(C(C)(C)C)cc2)C(=O)N[C@@H](CCC(=O)O)CC(=O)N[C@H](CCCCN)C(N)=O)C(C)(C)SSC1(C)C [compound 180] (Oleoyl-[Pen][NMeR]SDTL[Pen][Phe(4-tBu)][β3hE][dK]-NH2; disulfide 1-7) gave an IC50 of 1 to 10 µM.
Molecule CC(=O)N[C@@H]1C(=O)N(C)[C@@H](CCCNC(=N)N)C(=O)N[C@@H](CO)C(=O)N[C@@H](CC(=O)O)C(=O)N[C@@H]([C@@H](C)O)C(=O)N[C@@H](CC(C)C)C(=O)N[C@H](C(=O)N[C@@H](Cc2c[nH]c3ccccc23)C(=O)N[C@H](Cc2c[nH]c3ccccc23)C(=O)N[C@H](CCCCNC(=O)COCC(=O)NCCCC[C@@H](NC(=O)[C@@H](Cc2c[nH]c3ccccc23)NC(=O)[C@H](Cc2c[nH]c3ccccc23)NC(=O)[C@H]2NC(=O)[C@H](CC(C)C)NC(=O)[C@H]([C@@H](C)O)NC(=O)[C@H](CC(=O)O)NC(=O)[C@H](CO)NC(=O)[C@H](CCCNC(=N)N)N(C)C(=O)[C@@H](NC(C)=O)C(C)(C)SSC2(C)C)C(N)=O)C(N)=O)C(C)(C)SSC1(C)C [compound 110] (I: Ac-[Pen][NMeR]SDTL[Pen]W[dW][dK]-NH2 / II: Ac-[Pen][NMeR]SDTL[Pen]W[dW][dK]-NH2; disulfide I:1-I:7, II:1-II:7; linker I:10-II:10 via Diglycolyl) has an IC50 of 0.01 to 0.025 µM.
Molecule CCCCCCCCCCCCCC(=O)N[C@@H]1C(=O)N(C)[C@@H](CCCNC(=N)N)C(=O)N[C@@H](CO)C(=O)N[C@@H](CC(=O)O)C(=O)N[C@@H]([C@@H](C)O)C(=O)N[C@@H](CC(C)C)C(=O)N[C@H](C(=O)N[C@@H](Cc2ccc(C(C)(C)C)cc2)C(=O)N[C@@H](CCC(=O)O)CC(=O)N[C@H](CCCCN)C(N)=O)C(C)(C)SSC1(C)C [compound 181] (Myristoyl-[Pen][NMeR]SDTL[Pen][Phe(4-tBu)][β3hE][dK]-NH2; disulfide 1-7) has an IC50 of 1 to 10 µM.
Work on CC(=O)N[C@@H]1C(=O)N(C)[C@@H](CCCNC(=N)N)C(=O)N[C@@H](CO)C(=O)N[C@@H](CC(=O)O)C(=O)N[C@@H]([C@@H](C)O)C(=O)N[C@@H](CC(C)C)C(=O)N[C@H](C(=O)N[C@H](Cc2ccccc2)C(=O)N[C@@H](CCC(=O)O)C(=O)N[C@H](CCCCNC(=O)COCC(=O)NCCCC[C@@H](NC(=O)[C@H](CCC(=O)O)NC(=O)[C@@H](Cc2ccccc2)NC(=O)[C@H]2NC(=O)[C@H](CC(C)C)NC(=O)[C@H]([C@@H](C)O)NC(=O)[C@H](CC(=O)O)NC(=O)[C@H](CO)NC(=O)[C@H](CCCNC(=N)N)N(C)C(=O)[C@@H](NC(C)=O)C(C)(C)SSC2(C)C)C(N)=O)C(N)=O)C(C)(C)SSC1(C)C [compound 30] (I: Ac-[Pen][NMeR]SDTL[Pen][dF]E[dK]-NH2 / II: Ac-[Pen][NMeR]SDTL[Pen][dF]E[dK]-NH2; disulfide I:1-I:7, II:1-II:7; linker I:10-II:10 via Diglycolyl) yielded an IC50 of 0.1 to 0.5 µM.
With CC(=O)N[C@@H]1C(=O)N(C)[C@@H](CCCNC(=N)N)C(=O)N[C@@H](CO)C(=O)N[C@@H](CC(=O)O)C(=O)N[C@@H]([C@@H](C)O)C(=O)N[C@@H](CC(C)C)C(=O)N[C@H](C(=O)N[C@@H](Cc2ccc3ccccc3c2)C(=O)N[C@H](CC(C)C)C(=O)N[C@H](CCCCNC(=O)COCC(=O)NCCCC[C@@H](NC(=O)[C@@H](CC(C)C)NC(=O)[C@H](Cc2ccc3ccccc3c2)NC(=O)[C@H]2NC(=O)[C@H](CC(C)C)NC(=O)[C@H]([C@@H](C)O)NC(=O)[C@H](CC(=O)O)NC(=O)[C@H](CO)NC(=O)[C@H](CCCNC(=N)N)N(C)C(=O)[C@@H](NC(C)=O)C(C)(C)SSC2(C)C)C(N)=O)C(N)=O)C(C)(C)SSC1(C)C [compound 119] (I: Ac-[Pen][NMeR]SDTL[Pen][2Nal][dL][dK]-NH2 / II: Ac-[Pen][NMeR]SDTL[Pen][2Nal][dL][dK]-NH2; disulfide I:1-I:7, II:1-II:7; linker I:10-II:10 via Diglycolyl) the IC50 was 0.5 to 1 µM.
CC(=O)N[C@@H]1C(=O)N(C)[C@@H](CCCNC(=N)N)C(=O)N[C@@H](CO)C(=O)N[C@@H](CC(=O)O)C(=O)N[C@@H]([C@@H](C)O)C(=O)N[C@@H](CC(C)C)C(=O)N[C@H](C(=O)N[C@@H](Cc2cccc3ccccc23)C(=O)N[C@H](CC(C)C)C(=O)N[C@H](CCCCNC(=O)COCC(=O)NCCCC[C@@H](NC(=O)[C@@H](CC(C)C)NC(=O)[C@H](Cc2cccc3ccccc23)NC(=O)[C@H]2NC(=O)[C@H](CC(C)C)NC(=O)[C@H]([C@@H](C)O)NC(=O)[C@H](CC(=O)O)NC(=O)[C@H](CO)NC(=O)[C@H](CCCNC(=N)N)N(C)C(=O)[C@@H](NC(C)=O)C(C)(C)SSC2(C)C)C(N)=O)C(N)=O)C(C)(C)SSC1(C)C [compound 113] (I: Ac-[Pen][NMeR]SDTL[Pen][1Nal][dL][dK]-NH2 / II: Ac-[Pen][NMeR]SDTL[Pen][1Nal][dL][dK]-NH2; disulfide I:1-I:7, II:1-II:7; linker I:10-II:10 via Diglycolyl) gave an IC50 of 0.5 to 1 µM.
